Measurements taken from US8414958B2, “Implant and method for the manufacture thereof” (Thommen Medical AG, priority 2008, dated 2013).

Columns and labels:
parietal bone of rabbits = conditions: parietal bone fractures, collagen sponges; cited from earlier work
tibias of rats = conditions: titanium implants in tibias, daily into the abdominal cavity; cited from earlier work
bones of rats = conditions: calcium sulfate carrier disks, eight weeks, compared to control group; cited from earlier work
jawbones of rats = conditions: jawbone fractures, gelatin sponges; cited from earlier work
[1] = Solubility in ethanol and ethanol/water mixtures; type: physicochemical

SMILES	formation of new bone (parietal bone of rabbits)	bone density around the implant (tibias of rats)	bone density (bones of rats)	bone mineral density (bones of rats)	mineral content of the bones (bones of rats)	bone density above that of the control group receiving no active ingredient (jawbones of rats)	formation of new bone in histological studies (jawbones of rats)	ethanol content of the ethanol/water mixture in which the substance dissolves [1] [% ethanol]	solubility in water
CCC(C)(C)C(=O)O[C@H]1C[C@@H](C)C=C2C=CC(C)[C@H](CC[C@@H]3C[C@@H](O)CC(=O)O3)[C@H]21 (stereo in doubt) [simvastatin, [(1S,3R,7R,8S,8aR)-8-[2-[(2R,4R)-4-hydroxy-6-oxo-oxan-2-yl]ethyl]-3,7-dimethyl-1,2,3,7,8,8a-hexahydronaphthalen-1-yl] 2,2-dimethylbutanoate]	accelerated formation of new bone	significant increase	significant increase	significant increase	significant increase	190-240%	enhanced formation of new bone was detectable	–	–
CCC(C)(C)C(=O)O[C@H]1C[C@@H](C)C=C2C=C[C@H](C)[C@H](CC[C@@H](O)C[C@@H](O)CC(=O)O)[C@H]21 [open-chain acid form of simvastatin]	–	–	–	–	–	–	–	25	water-soluble
